Measured values reported in patent US7317013B2 (priority 2003, dated 2008).
Structures can show the parent of a compound that is named as a salt.

Columns and labels:
[1] = target: T1, airway epithelial sodium currents (epithelial Na+ channel, ENaC) (Canis lupus familiaris, UniProt A0A8I3MKE6+A0A8I3Q679+Q95165); assay: Sodium channel blocking activity: inhibition of short circuit current (ISC) in airway epithelial monolayers mounted in Ussing chambers; format: cell-based, canine; settings: for Fold Amiloride** (PSA 4022 = 100): relative potency for PSA 4022 = 100 using EC50 from PSA 4022 in same run
T1 sequence (A0A8I3Q679 1-649): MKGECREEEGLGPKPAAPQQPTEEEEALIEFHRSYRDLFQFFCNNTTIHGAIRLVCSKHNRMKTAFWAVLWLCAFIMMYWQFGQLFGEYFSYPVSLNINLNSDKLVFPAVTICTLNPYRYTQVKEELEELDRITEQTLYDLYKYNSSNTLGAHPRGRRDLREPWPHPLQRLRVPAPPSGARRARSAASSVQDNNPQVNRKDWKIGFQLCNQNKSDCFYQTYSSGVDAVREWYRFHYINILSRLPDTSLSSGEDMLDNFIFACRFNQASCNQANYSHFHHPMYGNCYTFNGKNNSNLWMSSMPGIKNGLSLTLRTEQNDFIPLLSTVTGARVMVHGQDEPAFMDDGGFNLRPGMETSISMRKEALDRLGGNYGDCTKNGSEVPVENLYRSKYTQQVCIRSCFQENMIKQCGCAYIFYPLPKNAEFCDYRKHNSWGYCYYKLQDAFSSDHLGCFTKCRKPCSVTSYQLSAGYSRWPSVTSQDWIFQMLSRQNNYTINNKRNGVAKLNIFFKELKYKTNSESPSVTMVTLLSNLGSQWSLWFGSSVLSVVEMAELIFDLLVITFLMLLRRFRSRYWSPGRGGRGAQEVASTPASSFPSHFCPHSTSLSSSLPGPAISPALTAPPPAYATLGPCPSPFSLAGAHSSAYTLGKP
T1 sequence (Q95165 1-641): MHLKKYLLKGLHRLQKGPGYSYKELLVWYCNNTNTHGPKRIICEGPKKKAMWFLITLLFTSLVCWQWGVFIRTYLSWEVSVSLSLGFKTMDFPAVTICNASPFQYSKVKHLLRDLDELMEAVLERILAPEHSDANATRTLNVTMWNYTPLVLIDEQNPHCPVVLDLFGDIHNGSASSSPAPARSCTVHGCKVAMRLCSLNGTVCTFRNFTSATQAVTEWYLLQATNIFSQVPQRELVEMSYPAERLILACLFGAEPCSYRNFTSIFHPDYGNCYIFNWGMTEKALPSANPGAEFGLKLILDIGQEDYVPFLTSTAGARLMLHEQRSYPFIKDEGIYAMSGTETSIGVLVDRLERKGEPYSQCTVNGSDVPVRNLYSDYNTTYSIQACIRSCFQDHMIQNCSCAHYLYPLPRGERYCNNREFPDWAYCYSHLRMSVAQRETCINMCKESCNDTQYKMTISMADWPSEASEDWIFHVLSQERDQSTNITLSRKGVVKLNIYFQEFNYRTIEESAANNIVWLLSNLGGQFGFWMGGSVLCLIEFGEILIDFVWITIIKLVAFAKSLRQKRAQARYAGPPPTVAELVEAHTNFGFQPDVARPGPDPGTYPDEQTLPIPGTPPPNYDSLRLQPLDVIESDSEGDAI
T1 sequence (A0A8I3MKE6 1-646): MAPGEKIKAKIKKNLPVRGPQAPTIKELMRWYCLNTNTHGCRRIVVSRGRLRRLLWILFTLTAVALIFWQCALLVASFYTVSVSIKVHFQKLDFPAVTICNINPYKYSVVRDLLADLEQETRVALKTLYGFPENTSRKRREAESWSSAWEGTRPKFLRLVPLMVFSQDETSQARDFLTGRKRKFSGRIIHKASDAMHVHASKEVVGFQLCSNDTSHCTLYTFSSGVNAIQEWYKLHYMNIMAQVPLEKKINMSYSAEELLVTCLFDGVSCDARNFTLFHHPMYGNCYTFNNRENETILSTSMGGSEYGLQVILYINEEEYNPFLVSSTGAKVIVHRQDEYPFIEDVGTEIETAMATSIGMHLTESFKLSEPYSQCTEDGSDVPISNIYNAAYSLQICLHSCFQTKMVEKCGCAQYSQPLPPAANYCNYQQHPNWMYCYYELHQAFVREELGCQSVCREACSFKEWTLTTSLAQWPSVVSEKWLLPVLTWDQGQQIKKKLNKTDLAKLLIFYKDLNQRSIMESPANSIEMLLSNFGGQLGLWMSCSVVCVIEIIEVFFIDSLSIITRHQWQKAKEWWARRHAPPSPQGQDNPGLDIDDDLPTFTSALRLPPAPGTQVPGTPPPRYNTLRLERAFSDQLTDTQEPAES
Experimental: One assay used to assess mechanism of action and/or potency of the compounds of the present invention involves the determination of lumenal drug inhibition of airway epithelial sodium currents measured under short circuit current (ISC) using airway epithelial monolayers mounted in Ussing chambers. Cells obtained from freshly excised human, dog, sheep or rodent airways are seeded onto porous 0.4 micron Snapwell™ Inserts (CoStar), cultured at air-liquid interface (ALI) conditions in hormonally defined media, and assayed for sodium transport activity (ISC) while bathed in Krebs Bicarbonate Ringer (KBR) in Using chambers. All test drug additions are to the lumenal bath with half-log dose addition protocols (from 1×10^−11 M to 3×10^−5 M), and the cumulative change in ISC (inhibition) recorded. All drugs are prepared in dimethyl sulfoxide as stock solutions at a concentration of 1×10^−2 M and stored at −20° C. Eight preparations are typically run in parallel; two preparations per run incorporate amiloride and/or benzamil as positive controls. After the maximal concentration (5×10^−5 M) is administered, the lumenal bath is exchanged three times with fresh drug-free KBR solution, and the resultant ISC measured after each wash for approximately 5 minutes in duration. Reversibility is defined as the percent return to the baseline value for sodium current after the third wash. All data from the voltage clamps are collected via a computer interface and analyzed off-line.
Dose-effect relationships for all compounds are considered and analyzed by the Prism 3.0 program. IC50 values, maximal effective concentrations, and reversibility are calculated and compared to amiloride and benzamil as positive controls.
Statistics: Data were analyzed using SYSTAT for Windows, version 5. Data were analyzed using a two-way repeated ANOVA (to assess overall effects), followed by a paried t-test to identify differences between specific pairs. Significance was accepted when P was less than or equal to 0.05. […] The compounds can be further tested tested for potency in canine bronchial epithelia using the in vitro assay described above. The results for the compounds of the present invention are reported as fold-enhancement values relative to amiloride.

SMILES: N=C(NCCCCC1CCN(CCCN)CC1)NC(=O)c1nc(Cl)c(N)nc1N (as salt: hydrochloride)
- melting point: 105 to 108 °C

SMILES: N=C(NCCCCC1CCN(CC(O)CO)CC1)NC(=O)c1nc(Cl)c(N)nc1N (centres unmarked) [compound 25456]
- Fold Amiloride** (PSA 4022 = 100) [1]: 6 ± 2 (n = 7)

SMILES: N=C(NCCCCC1CCN(CCN)CC1)NC(=O)c1nc(Cl)c(N)nc1N [compound 25455]
- Fold Amiloride** (PSA 4022 = 100) [1]: 5 ± 1 (n = 7)

SMILES: N=C(NCCCCC1CCN(CCCN)CC1)NC(=O)c1nc(Cl)c(N)nc1N [compound 25510]
- Fold Amiloride** (PSA 4022 = 100) [1]: 3 ± 9 (n = 7)

SMILES: N=C(NCCCCC1CCN(CCO)CC1)NC(=O)c1nc(Cl)c(N)nc1N [compound 25193]
- Fold Amiloride** (PSA 4022 = 100) [1]: 8 ± 3 (n = 6)

SMILES: N=C(N)NCCCN1CCC(CCCCNC(=N)NC(=O)c2nc(Cl)c(N)nc2N)CC1 (as salt: hydrochloride)
- melting point: 176 to 178 °C

SMILES: CC(C)(C)OC(=O)NCCCN1CCC(CCCCNC(=N)NC(=O)c2nc(Cl)c(N)nc2N)CC1 [compound 25452]
- Fold Amiloride** (PSA 4022 = 100) [1]: 8 ± 1 (n = 6)

SMILES: N=C(NCCCCC1CCN(CC(O)CO)CC1)NC(=O)c1nc(Cl)c(N)nc1N (centres unmarked)
- melting point: 188 to 191 °C

SMILES: CC(C)(C)OC(=O)N=C(NCCCN1CCC(CCCCNC(=N)NC(=O)c2nc(Cl)c(N)nc2N)CC1)NC(=O)OC(C)(C)C [compound 25569]
- Fold Amiloride** (PSA 4022 = 100) [1]: 41 ± 9 (n = 9)

SMILES: N=C(NCCCCC1CCN(CCCO)CC1)NC(=O)c1nc(Cl)c(N)nc1N (as salt: hydrochloride)
- melting point: 165 to 167 °C

SMILES: N=C(NCCCCC1CCN(CCCO)CC1)NC(=O)c1nc(Cl)c(N)nc1N [compound 25310]
- Fold Amiloride** (PSA 4022 = 100) [1]: 5 ± 2 (n = 8)

SMILES: Cl.Cl.Cl.N=C(N)NCCCN1CCC(CCCCNC(=N)NC(=O)c2nc(Cl)c(N)nc2N)CC1 [compound 25795]
- EC50 ([1]; lumenal drug addition, bronchial epithelia, mean ± spread (n in cell)): 0.037 ± 0.005 µM
- Fold Amiloride** (PSA 4022 = 100) [1]: 18 ± 7 (n = 4)

SMILES: N=C(NCCCCC1CCN(CCN)CC1)NC(=O)c1nc(Cl)c(N)nc1N (as salt: hydrochloride)
- melting point: > 200 °C
